This note sets out measurements from patent publication US5703232A, “Process and solvate of 2-methyl-thieno-benzodiazepine” (Eli Lilly and Company, priority 1996, dated 1997).

The test system of data set [1] is 5-HT2B receptor. Briefly: 5-HT2B receptor activity.
For data set [2], the system named is rats. Briefly: conditioned avoidance response in rats. Format: in vivo.
The test system of data set [3] is rats. Briefly: induction of catalepsy. Format: in vivo. Conditions: compared with doses required to block conditioned avoidance response.
Data set [4] is described as follows: stability of the anhydrous crystalline forms. Format: physicochemical. As to conditions: anhydrous crystalline form, suitability for commercial pharmaceutical formulations.
For data set [5], the system named is mice. Briefly: apomorphine-induced hypothermia in mice. Format: in vivo. The source says:
(§1) The Form I olanzapine prepared by the process of this invention has useful central nervous system activity. […] For example, the anhydrous Form I compound has been assessed in a number of standard behavior tests predictive of antipsychotic activity. The claimed compound antagonised apomorphine-induced climbing behavior and hypothermia in mice. See Moore, N. A. et al Psychopharmacology 94 (2), 263-266 (1988).

Data set [6] deals with mice. The experiment in a line: apomorphine-induced climbing behavior in mice. Format: in vivo.
From the text: as §1

A short description of data set [7]: detection of radiolabelled compound in saliva. Type of data set: in vivo.

Take `Cc1cc2c(s1)Nc1ccccc1N=C2N1CCN(C)CC1` [anhydrous Form I olanzapine, 2-methyl-4-(4-methyl-1-piperazinyl)-10H-thieno[2,3-b][1,5]benzodiazepine]: in data set [1], the 5-HT2B receptor activity is listed as 5-HT2B receptor activity. Moreover, the “inhibition of conditioned avoidance response” value in data set [2] is on record as “inhibits”. Also, in data set [3], the induction of catalepsy result is reported as “only at higher doses”. For the same compound, the “stability of the polymorph” value in data set [4] is recorded as “stable”. The “antagonism of apomorphine-induced hypothermia” value in data set [5] is on record as “antagonised”. Further, the “antagonism of apomorphine-induced climbing behavior” value in data set [6] is given as “antagonised”.
As for `Cc1cc2c(s1)Nc1ccccc1N=C2N1CCN(C)CC1` [anhydrous Form II olanzapine, 2-methyl-4-(4-methyl-1-piperazinyl)-10H-thieno[2,3-b][1,5]benzodiazepine], the “stability of the polymorph” value in data set [4] is on record as “metastable”.
Regarding `Cc1cc2c(s1)Nc1ccccc1N=C2N1CCN(C)CC1` [2-methyl-4-(4-methyl-1-piperazinyl)-10H-thieno-[2,3-b][1,5]benzodiazepine], the detection in saliva entry in data set [7] is reported as “can be detected in the saliva”.
